For orientation: IC50 means the midpoint of a concentration-inhibition curve.

These results are taken from patent publication US8865698B2, “Method of treatment using substituted pyrazolo[1,5-a]pyrimidine compounds” (Array BioPharma Inc., priority 2008, dated 2014).

Sequence of histidine-tagged recombinant human TrkA, cytoplasmic domain (P04629 440-796): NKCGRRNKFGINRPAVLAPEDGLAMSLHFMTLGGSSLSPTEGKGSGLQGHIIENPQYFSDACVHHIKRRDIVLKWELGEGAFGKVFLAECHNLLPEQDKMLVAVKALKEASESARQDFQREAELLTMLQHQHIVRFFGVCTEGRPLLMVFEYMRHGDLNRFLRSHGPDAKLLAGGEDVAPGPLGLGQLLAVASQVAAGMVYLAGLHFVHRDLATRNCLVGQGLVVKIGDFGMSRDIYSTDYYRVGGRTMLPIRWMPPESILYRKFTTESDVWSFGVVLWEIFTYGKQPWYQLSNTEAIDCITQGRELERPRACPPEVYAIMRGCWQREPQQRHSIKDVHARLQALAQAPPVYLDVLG

For this experiment, the target named is histidine-tagged recombinant human TrkA, cytoplasmic domain (Homo sapiens (Human), UniProt P04629). Kind of experiment: TrkA ELISA Assay. The experiment is classed as biochemical. The following applies: 2.5 nM TrkA, 500 μM ATP, 25 minutes; read-out: TrkA Elisa Enzyme IC50. An outline of the steps:
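IC50 derived by 4- or 5-parameter logistic fit of A450 signal from HRP-conjugated PY20 anti-phosphotyrosine with TMB. Reaction: poly(Glu,Ala,Tyr)-coated wells, 2.5 nM kinase, 500 μM ATP, MOPS pH 7.5 buffer with MgCl2, 25 min, ambient temperature.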
(In general: In an ELISA, binding on a coated surface is turned into a signal by an enzyme label.)
In the case of `COC(=O)C(=O)Nc1cnn2ccc(N3CCC[C@@H]3c3cc(F)ccc3F)nc12` [Example 104, (R)-methyl 2-(5-(2-(2,5-difluorophenyl)pyrrolidin-1-yl)pyrazolo[1,5-a]pyrimidin-3-ylamino)-2-oxoacetate], the IC50 was 7.65 nM.
`O=C(Nc1cnn2ccc(N3CCC[C@@H]3c3cc(F)ccc3C(F)F)nc12)N1CC[C@@H](O)C1` [Example 36, (R)—N-(5-((R)-2-(2-(difluoromethyl)-5-fluorophenyl)pyrrolidin-1-yl)pyrazolo[1,5-a]pyrimidin-3-yl)-3-hydroxypyrrolidine-1-carboxamide]: the IC50 was 18 nM.
With `Cc1ccc(C(=O)Nc2cnn3ccc(N4CCC[C@@H]4c4cccc(F)c4)nc23)cn1` [Example 78, (R)—N-(5-(2-(3-fluorophenyl)pyrrolidin-1-yl)pyrazolo[1,5-a]pyrimidin-3-yl)-6-methylnicotinamide] the figure was 47 nM; with `O=C(Nc1cnn2ccc(N3CCC[C@@H]3c3cncc(F)c3)nc12)N1CC[C@@H](O)C1` [Example 89, (R)—N-(5-((R)-2-(5-fluoropyridin-3-yl)pyrrolidin-1-yl)pyrazolo[1,5-a]pyrimidin-3-yl)-3-hydroxypyrrolidine-1-carboxamide], 896 nM; with `O=C(Nc1ccc(F)cc1)Nc1cnn2ccc(N3CCC[C@@H]3c3cc(F)ccc3F)nc12` [Example 18, (R)-1-(5-(2-(2,5-difluorophenyl)pyrrolidin-1-yl)pyrazolo[1,5-a]pyrimidin-3-yl)-3-(4-fluorophenyl)urea], 4.6 nM.
With `O=C(Nc1cnn2ccc(N3CCC[C@@H]3c3cc(F)ccc3Cl)nc12)N1CC[C@H](O)C1` [Example 81, (S)—N-(5-((R)-2-(2-chloro-5-fluorophenyl)pyrrolidin-1-yl)pyrazolo[1,5-a]pyrimidin-3-yl)-3-hydroxypyrrolidine-1-carboxamide] the figure was 8 nM; with `Cc1cccnc1C(=O)Nc1cnn2ccc(N3CCC[C@@H]3c3cccc(F)c3)nc12` [Example 69, (R)—N-(5-(2-(3-fluorophenyl)pyrrolidin-1-yl)pyrazolo[1,5-a]pyrimidin-3-yl)-3-methylpicolinamide], 6.2 nM; with `Cc1cnccc1C(=O)Nc1cnn2ccc(N3CCC[C@@H]3c3cccc(F)c3)nc12` [Example 80, (R)—N-(5-(2-(3-fluorophenyl)pyrrolidin-1-yl)pyrazolo[1,5-a]pyrimidin-3-yl)-3-methylisonicotinamide], 320 nM.
With `O=C(Nc1cnn2ccc(N3CCC[C@@H]3c3cc(F)ccc3F)nc12)N1C[C@@H]2C[C@H]1CO2` [Example 92, (1S,4S)—N-(5-((R)-2-(2,5-difluorophenyl)pyrrolidin-1-yl)pyrazolo[1,5-a]pyrimidin-3-yl)-2-oxa-5-azabicyclo[2.2.1]heptane-5-carboxamide] the figure was 107 nM; with `CC1(O)CN(C(=O)Nc2cnn3ccc(N4CCC[C@@H]4c4cc(F)ccc4Cl)nc23)C1` [Example 22, (R)—N-(5-(2-(2-chloro-5-fluorophenyl)pyrrolidin-1-yl)pyrazolo[1,5-a]pyrimidin-3-yl)-3-hydroxy-3-methylazetidine-1-carboxamide], 11.5 nM.
As for `CN1CCN(C(=O)Nc2cnn3ccc(N4CCC[C@@H]4c4cc(F)ccc4F)nc23)CC1` [Example 28, (R)—N-(5-(2-(2,5-difluorophenyl)pyrrolidin-1-yl)pyrazolo[1,5-a]pyrimidin-3-yl)-4-methylpiperazine-1-carboxamide], the IC50 is 57.4 nM.
With `O=C(Nc1cnn2ccc(N3CCC[C@@H]3c3cc(F)ccc3C(F)F)nc12)N1CC[C@H](O)C1` [Example 37, (S)—N-(5-((R)-2-(2-(difluoromethyl)-5-fluorophenyl)pyrrolidin-1-yl)pyrazolo[1,5-a]pyrimidin-3-yl)-3-hydroxypyrrolidine-1-carboxamide] the figure was 8.7 nM; with `O=C(Nc1cnn2ccc(N3CCC[C@@H]3c3cc(F)ccc3F)nc12)[C@H]1CC[C@H](O)C1` [Example 95, (1S,3S)—N-(5-((R)-2-(2,5-difluorophenyl)pyrrolidin-1-yl)pyrazolo[1,5-a]pyrimidin-3-yl)-3-hydroxycyclopentanecarboxamide], 42.5 nM; with `O=C(Nc1cnn2ccc(N3CCC[C@@H]3c3cc(F)ccc3F)nc12)N1CCOCC1` [Example 13, (R)—N-(5-(2-(2,5-difluorophenyl)pyrrolidin-1-yl)pyrazolo[1,5-a]pyrimidin-3-yl)morpholine-4-carboxamide], 32.2 nM.
The result for `Cc1cccc(C(=O)Nc2cnn3ccc(N4CCC[C@@H]4c4cc(F)ccc4F)nc23)n1` [Example 60, (R)—N-(5-(2-(2,5-difluorophenyl)pyrrolidin-1-yl)pyrazolo[1,5-a]pyrimidin-3-yl)-6-methylpicolinamide] reads 4.2 nM; that for `O=C(Nc1cnn2ccc(N3CCC[C@@H]3c3cc(F)ccc3C(F)(F)F)nc12)N1CC[C@H](O)C1` [Example 84, (S)—N-(5-((R)-2-(5-fluoro-2-(trifluoromethyl)phenyl)pyrrolidin-1-yl)pyrazolo[1,5-a]pyrimidin-3-yl)-3-hydroxypyrrolidine-1-carboxamide], 3.2 nM; that for `CC1(c2cccc(F)c2)CCCN1c1ccn2ncc(NC(=O)N3CC(O)C3)c2n1` (centres unmarked) [Example 10, N-(5-(2-(3-fluorophenyl)-2-methylpyrrolidin-1-yl)pyrazolo[1,5-a]pyrimidin-3-yl)-3-hydroxyazetidine-1-carboxamide], 188 nM.
The result for `O=C(Nc1cnn2ccc(N3CCC[C@@H]3c3cc(F)ccc3C(F)(F)F)nc12)N1CCC[C@@H](O)C1` [Example 86, (R)—N-(5-((R)-2-(5-fluoro-2-(trifluoromethyl)phenyl)pyrrolidin-1-yl)pyrazolo[1,5-a]pyrimidin-3-yl)-3-hydroxypiperidine-1-carboxamide] reads 14 nM; that for `O=C(Nc1cnn2ccc(N3CCC[C@@H]3c3cc(F)ccc3Cl)nc12)N1CCOCC1` [Example 23, (R)—N-(5-(2-(2-chloro-5-fluorophenyl)pyrrolidin-1-yl)pyrazolo[1,5-a]pyrimidin-3-yl)morpholine-4-carboxamide], 41.7 nM.
Regarding `O=C(Nc1cnn2ccc(N3CCC[C@@H]3c3cc(F)cc(Cl)c3)nc12)N1CC[C@H](O)C1` [Example 35, (S)—N-(5-((R)-2-(3-chloro-5-fluorophenyl)pyrrolidin-1-yl)pyrazolo[1,5-a]pyrimidin-3-yl)-3-hydroxypyrrolidine-1-carboxamide], the IC50 amounted to 20.2 nM.
